Assay results as given in publication PMC11224403, “Des-acyl ghrelin reduces alcohol intake and alcohol-induced reward in rodents” (Translational Psychiatry, 2024).

Assays:
µ-opioid receptor = assay type: cell-based, human; conditions: 50 µM DAG in results (8.3 µM in methods); luminescence, triplicates
SERT = assay: Transporter inhibition in recombinant cell line, SERT; assay type: cell-based, human; conditions: 8.3 µM DAG; recombinant cells, 3 h incubation, fluorescence dye
cFOS in NAc and VTA = assay: cFOS-positive cells in NAc and VTA; assay type: in vivo, male rats; conditions: acute DAG, 90 min
Method: We therefore explore if DAG influenced the activity of neurons (cFOS) in NAc and VTA. Naïve male rats were treated acutely with vehicle (n = 3) or DAG (n = 3) and were 90 min later perfused. Brains were collected, and stored in 4% paraformaldehyde overnight, and in 25% sucrose until sectioning. Brains were sectioned coronally in 40-μm sections using a microtome. Brain slices of NAc (AP +1.8 mm) and VTA (AP −5.2 mm) were stained for cFOS-DAB, as described elsewhere, visualized by a Nikon light microscope (Nikon Eclipse 90i, Tokyo, Japan). Pictures were captured with a Nikon DS-Fi1 camera (Nikon, Tokyo, Japan). Cell bodies positive for cFOS immunoreactivity (dark brown) were quantified using ImageJ-FIJI (National Institutes of Health, Bethesda, MD), and counted manually by a blinded experimenter.
The obtained data are normally distributed and with equal variance. The data from drinking experiments were analyzed by unpaired t-test or repeated two-way ANOVA. A two-tailed unpaired t-test analyzed the ELISA, ex vivo HPLC-EC, and cFOS data. […] A one-way ANOVA with Bonferroni post hoc tests and unpaired t-test analyzed the locomotor activity and CPP data, respectively. The in vivo microdialysis experiments were evaluated by a repeated two-way ANOVA followed by the Bonferroni post hoc test. […] Data were analyzed with GraphPad Prism version 10.0.2 (GraphPad Software, La Jolla, CA, USA).

des-acyl ghrelin (GSSFLSPEHQRVQQRKESKKPPAKLQPR; Ghrelin-28 non-acylated; UniProt Q9UBU3 24-51, looked up) [DAG, non-octanoylated form of ghrelin; purchased from Tocris (printed Tocrise Bioscience), dissolved in 0.9% NaCl]
activation of µ-opioid receptor (µ-opioid receptor): no activation | inhibition of SERT (SERT): no inhibition | cFOS-positive cells, VTA (cFOS in NAc and VTA; male rats, data not shown): Neither did DAG treatment influence cFOS-positive cells in the VTA | number of cFOS-positive cells, NAc shell (cFOS in NAc and VTA; naïve male rats, n = 3 per group, vehicle 237 ± 13, t4 = 0.60, P = 0.6372): 219 ± 33
